# Reference: patent publication US20250092418A1, “METHODS OF GENETICALLY ALTERING A PLANT NIN-GENE TO BE RESPONSIVE TO AUXIN” (NIAB, priority 2023, published 2025)
# Key:
# pDR5:NLS-eGFP = pDR5:NLS-eGFP expression in barley STARTS lines post auxin treatment; type: in vivo, Hordeum vulgare; conditions: 50 μM 2,4D
# Procedure: Tissue culture STARTS plants were grown in rooting media for approximately 4 weeks after transfer, and barley seeds were grown on water-agar plates for seven days after germination, after which seedlings were transferred to 1% Hoagland's media plates. […] The root portion of the plates was covered with aluminum foil. The plants were maintained under a 16 h-day and 8 h-night cycle at 24-22° C. Tissue was harvested four weeks after treatment for phenotyping and RNA extraction.
# Auxin treatment was reported to induce nodule like-structures (NLS) in rice (Hiltenbrand et al., 2016). Since it was established in the strawberry system that expressing pDR5:DryasNIN could form NLS with some proto-nodule identity under the influence of auxin, lines in barley (Hordeum vulgare var Golden promise) were raised with the same cassette. To establish the efficacy of the pDR5 promoter in barely system, some transgenics were also raised with pDR5:GUS and pDR5:NLS-eGFP (FIGS. 23A-23F, 24A-24J). In comparison to overexpressing pOsUbi:GUS, pDR5:GUS expression under control condition was very weak (FIGS. 23B-23C).
# MtNIN = assay: Relative expression of MtNIN in M. truncatula roots after auxin analogue treatment; type: in vivo, Medicago truncatula; conditions: exogenous treatment 0.1, 1 or 10 μM for 16 hours and 2 days
# Procedure: Germinated seedlings (approx. 4 days after germination) are moved to FPmod plates supplemented with 0.1 μM, 1 μM, or 10 μM NAA, 0.8% agarose (Sigma), and adjusted to pH 7. The seedlings were maintained for 16 hours and 2 days under 16 h-day and 8 h-night cycle at 24-22° C. before harvesting them for RNA extraction.
# Total RNA was reverse-transcribed using SuperScript™ III Reverse Transcriptase (Life Technologies) and anchored dT17 primers as described in the manufacturer's protocol. About 1 μl of cDNA was used to set up real-time RT-qPCR in a […] reaction system with 2×SYBR™ Green PCR master mixes (PCR biosystems) using an ABI Proflex7 Real-Time PCR system. PCR program: 1 cycle at 50° C. for 2 min, 1 cycle at 95° C. for 5 min, and 40 cycles at 95° C. for 30 s and 60° C. for 30s. Expression data were obtained from 3 independent biological repetitions. Calculations were done using the cycle threshold method using MtEF1a, DgActin and FvHistoneH4 as the endogenous control.
# pDgNIN2:GUS = assay: GUS staining of pDgNIN2:GUS hairy roots after treatment with LCO / chitin oligomer signaling molecules; type: in vivo, Datisca glomerata; conditions: 24 hours post treatment with 10^−7M
# Procedure: (§1) For GUS staining the harvested roots were thoroughly cleaned in sterile water and scored under the stereo-fluorescent microscope so that only the transformed roots were harvested for the staining purpose. The roots were fixed in 90% acetone on ice for 1 hour. Subsequently, the acetone was replaced with 50 mM phosphate buffer pH7.2 (Sigma) and the roots were washed twice to remove any acetone. The roots were then moved to the staining solution containing 0.1M Phosphate buffer, 0.25 mM K3[Fe(CN)6](potassium ferricyanide), 0.25 mM K4[Fe(CN)6](potassium ferrocyanide), 0.25% (v/v) Triton X-100 and 1 mM 5-bromo-4-chloro-3-indolyl beta-D-glucuronide (X-Gluc, Thermo). The samples were vacuum infiltrated for 30 minutes and incubated at 37° C. overnight. After staining the tissues were cleared of all the staining solution and stored in 50% ethanol for imaging under the stereomicroscope DX105 F (Leica). For ruthenium red staining the staining solution was prepared (0.1% ruthenium red in sterile water) and a few microliters are added over each section and subsequently washed using sterile deionized water. For toluidine blue staining, 0.1% toluidine blue staining solution was prepared in deionized water and a few microliters are added over each section and subsequently washed using sterile deionized water. […]
# pDgNIN:GUS = assay: GUS staining of pDgNIN:GUS hairy roots after treatment with LCO / chitin oligomer signaling molecules; type: in vivo, Datisca glomerata; conditions: 24 hours post treatment with 10^−7M
# Procedure: as §1
# DgNIN2 = assay: Relative expression of DgNIN2 in D. glomerata roots (real-time PCR, normalized to DgActin); type: in vivo, Datisca glomerata; conditions: 10 days post treatment with 100^−6M NAA
# Procedure: (§2) Germinated seedlings (approx. 4 weeks after germination) are moved to ½MS plates supplemented with 0.5 g/L MES (Merck), 100^−6M NAA, 0.8% agarose (Sigma) and adjusted to pH 5.8. The seedlings were maintained for 10 days under a 16 h-day and 8 h-night cycle at 22-24° C. before harvesting for RNA extraction.
# (§3) Each plant root system consisting of transformed root or nodules was harvested and each individual root system formed a biological replicate; 3 or more technical replicates were prepared from each root system having a 100-150 mg sample. RNA was extracted using a modified extraction buffer containing 2% SDS (v/v), 100 mM Tris-HCl pH 8.0, 1.4M NaCl, and 20 mM EDTA. The samples were crushed with tungsten-carbide beads (Qiagen) in a mechanical pulverize (Spex Geno/Grinder®) in the presence of 12 μl/ml β-mercaptoethanol (Sigma) and 50 mg PVPP (Sigma). The powder was resuspended with the extraction buffer followed by treatment with chloroform:iso-amyl alcohol (24:1)(Melford) and chloroform (Sigma). […] The extracted RNA was quantified using a NanoDrop® (Thermo) and then treated for DNase digestion using TURBO DNA-free™ kit (Thermo) using the manufacturer protocol. […] Quantitative real-time polymerase chain reaction (qRT-PCR) was performed in technical replicates using SyGreen mix Lo-ROX (PCR Biosystems) using QuantStudio™ 7 Flex system (ABI) in a total volume of 10 μl. […]
# DgNIN = assay: Relative expression of DgNIN in D. glomerata roots (real-time PCR, normalized to DgActin); type: in vivo, Datisca glomerata; conditions: 10 days post treatment with 100^−6M NAA
# Procedure: as §2, §3
# pDR5:GUS [1] = assay: pDR5:GUS auxin signaling readout in stable F. vesca lines; type: in vivo, Fragaria vesca; parameters: dose or concentration left out as unconfirmed
# Procedure: Tissue culture plants growing in SMR (approximately 4 weeks after transfer) were moved to ½ Hoagland's media plates supplemented with 100^−6M NAA, 0.8% agarose (Sigma). The plants were maintained for 4 weeks under a 16 h-day and 8 h-night cycle at 22-24° C. before harvesting for phenotyping and RNA extraction.
# as §1, with “(Leica).” for “(Leica). For ruthenium red staining the staining solution was prepared (0.1% ruthenium red in sterile water) and a few microliters are added over each section and subsequently washed using sterile deionized water. For toluidine blue staining, 0.1% toluidine blue staining solution was prepared in deionized water and a few microliters are added over each section and subsequently washed using sterile deionized water.”
# pDR5:GUS [2] = assay: pDR5:GUS expression in barley STARTS lines post auxin treatment; type: in vivo, Hordeum vulgare; conditions: 100 μM NAA, 3 weeks post treatment
# Procedure: as §1
SMILES,activation of MtNIN expression (MtNIN),GUS staining of pDgNIN2:GUS roots (pDgNIN2:GUS),GUS staining of pDgNIN:GUS roots (pDgNIN:GUS),also measured
"O=C(O)COc1ccc(Cl)cc1Cl [2,4D, 2,4-Dichlorophenoxyacetic acid]",differential activation of MtNIN expression,,,pDR5:NLS-eGFP signal (pDR5:NLS-eGFP): eGFP localization could be seen in the nucleus
CC(=O)N[C@H]1[C@H](O[C@H]2[C@H](O)[C@@H](NC(C)=O)C(O)O[C@@H]2CO)O[C@H](CO)[C@@H](O[C@@H]2O[C@H](CO)[C@@H](O[C@@H]3O[C@H](CO)[C@@H](O)[C@H](O)[C@H]3NC(C)=O)[C@H](O)[C@H]2NC(C)=O)[C@@H]1O (stereo partly shown) [C04],,did not show staining,intense staining in the root vasculature and near the root tip,
CC(=O)N[C@H]1[C@H](O[C@H]2[C@H](O)[C@@H](NC(C)=O)[C@H](O[C@H]3[C@H](O)[C@@H](NC(C)=O)[C@H](O[C@H]4[C@H](O)[C@@H](NC(C)=O)C(O)O[C@@H]4CO)O[C@@H]3CO)O[C@@H]2CO)O[C@H](CO)[C@@H](O[C@@H]2O[C@H](CO)[C@@H](O[C@@H]3O[C@H](CO)[C@@H](O[C@@H]4O[C@H](CO)[C@@H](O[C@@H]5O[C@H](CO)[C@@H](O)[C@H](O)[C@H]5NC(C)=O)[C@H](O)[C@H]4NC(C)=O)[C@H](O)[C@H]3NC(C)=O)[C@H](O)[C@H]2NC(C)=O)[C@@H]1O (stereo partly shown) [C08],,failed to induce any NIN expression,no staining,
"O=C(O)CCCc1c[nH]c2ccccc12 [IBA, Indole-3-butyric acid]",differential activation of MtNIN expression,,,
"O=C(O)Cc1cccc2ccccc12 [NAA, 1-naphthalene acetic acid]",differential activation of MtNIN expression,,,increase in the expression of DgNIN2 as compared to the control treated root samples (DgNIN2): ~12 fold; increase in the expression of DgNIN as compared to the control treated root samples (DgNIN): ~4 fold; pDR5:GUS staining pattern (pDR5:GUS [1]; +N+P+NAA): non-specific expression throughout the root system; pDR5:GUS staining pattern (pDR5:GUS [1]; −N+P+NAA (N limiting condition)): localized GUS staining in the bump like structures; pDR5:GUS staining (pDR5:GUS [2]): GUS staining was visible in the bump-like structures
